The structures appear in SMILES notation. Several values for one entry are separate records, joined by “and”; a condition that tells them apart may be missing. Equal values may be shown once.

This is an account of results in patent publication US20070281903A1, “Morinda Citrifolia-Based Formulation 5-LOX And 15-LOX” (priority 2006, published 2007).

For this test, the target named is T1, 5-Lipoxygenase (5-LOX) (Homo sapiens, UniProt P09917).
T1 construct: Human peripheral blood mononuclear leukocytes (PBML) were isolated through a Ficoll-Paque density gradient; endogenous in cells; host or cells: human peripheral blood mononuclear leukocytes (PBML)
T1 sequence (P09917 1-674): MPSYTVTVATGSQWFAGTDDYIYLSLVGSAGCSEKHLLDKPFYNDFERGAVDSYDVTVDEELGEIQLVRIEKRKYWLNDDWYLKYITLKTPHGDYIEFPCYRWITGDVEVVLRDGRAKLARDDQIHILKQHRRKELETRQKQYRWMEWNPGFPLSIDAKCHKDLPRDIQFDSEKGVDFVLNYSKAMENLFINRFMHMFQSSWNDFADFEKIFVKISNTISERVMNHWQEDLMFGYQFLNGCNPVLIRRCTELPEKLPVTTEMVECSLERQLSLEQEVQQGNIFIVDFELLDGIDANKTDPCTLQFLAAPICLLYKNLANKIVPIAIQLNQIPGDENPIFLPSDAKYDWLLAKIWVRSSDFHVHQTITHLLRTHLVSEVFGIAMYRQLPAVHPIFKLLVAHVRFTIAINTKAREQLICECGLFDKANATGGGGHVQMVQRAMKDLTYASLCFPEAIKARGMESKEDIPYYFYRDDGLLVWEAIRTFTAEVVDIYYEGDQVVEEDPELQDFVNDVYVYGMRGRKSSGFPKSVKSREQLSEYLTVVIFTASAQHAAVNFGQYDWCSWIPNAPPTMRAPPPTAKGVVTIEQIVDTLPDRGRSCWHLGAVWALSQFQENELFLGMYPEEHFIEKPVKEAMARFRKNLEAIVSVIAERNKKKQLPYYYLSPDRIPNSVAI
The experiment in a line: 5-Lipoxygenase inhibition assay, LTB4 by EIA in A23187-stimulated human PBML. It counts as cell-based. The conditions noted are these: for Avg. % Inh.: average of duplicates; for % Inh. / Product (pg/well): single replicate. From the text:
Methods employed in this example were adapted from the scientific literature to maximize reliability and reproducibility. […] 110-13 (2000).
In this study, the 5-LOX source was human peripheral blood mononuclear cells (PBMNC) and the substrate was arachidonic acid having a general reaction of: arachidonic acid →5-LOX→5-HPETE→LTB4. Human peripheral blood mononuclear leukocytes (PBML) were isolated through a Ficoll-Paque density gradient. The inhibiting agent was processed Morinda citrifolia puree juice concentrate. Morinda citrifolia was pre-incubated with PBML (5×10^6 cell/ml) in HBSS buffer pH 7.4 at 37° C. for 15 minutes. […] Following neutralization with NaOH and centrifugation, the supernatant LTB4 is measured using an EIA kit.
The supernatant sample was utilized in same assay and protocols as outlined in Example One above, wherein the brown substance obtained was substituted for Morinda citrifolia puree juice.

With `CC(Cc1ccc(O)c(O)c1)C(C)Cc1ccc(O)c(O)c1` (stereo not drawn) [NDGA, nordihydroguaretic acid], the “Avg. % Inh.” value is, setting by setting: (Conc. 0.03 uM) 6%; (Conc. 0.1 uM) 36%; (Conc. 0.3 uM) 73%; (Conc. 1 uM) 97%; (Conc. 3 uM) 100%. Besides, the “% Inh.” value was 3.6% and 9.2% (Conc. 0.03 uM); 36.1% (Conc. 0.1 uM); 73.5% and 72.8% (Conc. 0.3 uM); 97.0% and 97.4% (Conc. 1 uM); 99.7% and 100.8% (Conc. 3 uM). Moreover, the “Product (pg/well)” value (Conc. 0.03 uM) is 3608.3 pg/well and 3403.4 pg/well; the “Product (pg/well)” value (Conc. 0.1 uM) stood at 2433.3 pg/well; the “Product (pg/well)” value (Conc. 0.3 uM) is 1083.1 pg/well and 1106.1 pg/well; the “Product (pg/well)” value (Conc. 1 uM) is 233.7 pg/well and 217.9 pg/well; the “Product (pg/well)” value (Conc. 3 uM) was 134.9 pg/well and 94.3 pg/well.
